The target of one series is Parkin (Homo sapiens (Human), UniProt O60260). Nature of the series: Primary HCI assay of EGFP-Parkin translocation to mitochondria. In kind it is cell-based. The settings on record: primary assay screen, Parkin translocation to mitochondria. On the procedure:
GFP-Parkin is localized throughout the cell in unstressed cells but translocates to mitochondria when the mitochondrial membrane potential is compromised and Parkin is activated. After automated image acquisition of fixed cells, regions of interest of each cell were defined with the analysis software. […] To quantify the relocalization of GFP-Parkin to mitochondria, the ratio of the GFP intensity in the cytoplasm and the nucleus was calculated. Under non-stressed condition, this ratio is about 1. FIG. 1B is a bar graph showing the results of the assay with a Z factor (Z′) of 0.5-0.8, which indicates its robustness and usefulness as a screening assay. Validation of the assay has been performed by using PINK1 siRNA.
FIGS. 2A-2C show a primary HCI assay with CCCP titration. FIG. 2A is a graphic description of the primary HCI assay of EGFP-Parkin translocation. HeLa cells stably expressing GFP-Parkin were seeded with 1350 cells per well in 384-well plates (25 μL per well). Cells were allowed to attach overnight before drug was added 2× concentrated in a volume of 25 μL in triplicates. After 2 h, 50 μL of a 2× low-dose CCCP (yielding a final concentration of 3.5 μM CCCP) was added to all wells that contained test compounds and for the negative control. For positive control wells, CCCP was added in a final concentration of 10 μM. After 2 h incubation with CCCP, cells were fixed and labeled with Hoechst for at least 1 h before cells were imaged. […] Values were being normalized to negative and positive control values and plotted as % activity. Z′ was calculated for quality control. Positive controls were indicated in green, negative control wells in red. Drugs that lead to more than 50% activity are considered positive (blue).
Functional testing of compounds was performed using an established primary HCI assay for Parkin translocation, which correlates well with enzymatic activation (Fiesel et al., J. Cell Science (2014) 127:3488-3504; Fiesel et al., Human Mutation (2015) 36:774-786). In brief, 1400 HeLa cells stably expressing EGFP-Parkin were seeded into optical 384-well plates (Greiner BioOne) in 25 μL media and allowed to adhere for 40 h. Compounds 1, 2, 3, 4, and 31 were added to the plate as 2× concentrated stocks. Control wells were treated with equal volume of DMSO in media. After 2 h, unless otherwise stated, CCCP was added as 2× concentrated stock with a final assay concentration of 10 μM for PC wells and 3.5 μM for test and NC wells. This low dose of CCCP was experimentally determined by a dose response curve of CCCP to result in no Parkin translocation (FIG. 13). After another 2 h, cells were fixed in 4% paraformaldehyde for 10 min and stained with Hoechst 33342 (1:5000, Invitrogen) before plates were imaged and analyzed.
Image acquisition was performed on a BD Pathway 855 with the Attovision V1.6 software (BD Biosciences). Wells were imaged with a 20× objective using a 2×2 montage with laser autofocus. EGFP exposure time was 0.0175 sec, Hoechst 0.0015 sec. Raw images were not processed and directly analyzed using a build-in ‘RING—2 output’ algorithm. Values were exported and normalized using JMP 11 software and transferred to GraphPad Prism 7 for quality control, graphing and curve fitting for DRCs with a variable slope using four parameters. […] Values were normalized to both PC and NC values from 24 wells each per plate and the Z′ score was calculated. Plates with Z′<0.5 were repeated.

Another series concerns the target FLAG-Parkin C431S (Homo sapiens (Human), UniProt O60260, C431S). Kind of series: Ub-charging of FLAG-Parkin C431S (western blot). In kind it is cell-based. The settings on record: 1 μM, 2 h before 3.5 μM CCCP (FIG. 21). On the procedure:
Another measure of Parkin activation is Ub charging of Parkin. Parkin receives Ub from an E2 enzyme to transfer it to a substrate protein. The Ub is bound by Parkin C431 in an unstable thioester bond. A serine substitution of this amino acid (C431S) leads to a stable oxyester bond. The bound Ub can then be visualized as a band shift in Western blot experiments. HeLa 3×FLAG-Parkin C431S cells were seeded in 12-well plates and allowed to attach overnight. Cells were treated with 5 μM (top panels) or 1 μM (bottom panels) of Compounds 1, 2, 3, 4, and 31 2 h before adding CCCP for another 2 h. 10 μM CCCP was added to positive control (PC) wells whereas all other samples received a low dose concentration of 3.5 μM. Cells were harvested in boiling hot SDS lysis buffer and protein concentration was determined by BCA. Samples were split and left either untreated or were treated with NaOH as indicated. Samples were run on an 8-16% Tris-Glycine gel, blotted onto membranes and probed with antibodies against Flag and pS65-Ub. GAPDH served as a loading control. Band shift indicates Parkin binding to Ubiquitin, which is cleavable with NaOH.
Cells were harvested in RIPA buffer or NP-40 lysis buffer containing protease and phosphatase inhibitors (Complete and PhosStop, Roche Applied Science) with the exception of Parkin Ub charging experiments where preheated (95° C.) SDS lysis buffer (50 mM Tris pH 7.6, 150 mM NaCl, 1% SDS) was used. Concentration of cell lysates was determined with bicinchoninic acid (Pierce Biotechnology). For Parkin Ub charging experiments, aliquots of lysates were treated with […] for 1 h at 37° C. pH was neutralized with equinormal HCl.
Protein was subjected to SDS-PAGE using 4-20% or 8-16% Tris-Glycine gels (Invitrogen) and transferred onto polyvinylidene fluoride (PVDF) (Millipore). Membranes were incubated with primary antibodies overnight at 4° C. followed by HRP-conjugated secondary antibodies (1:10,000; Jackson ImmunoResearch Laboratories). Primary antibodies used: beta III tubulin (rabbit, 1:1000, CST, #5568, CST), FLAG (mouse, 1:250,000, Sigma, F3165), GAPDH (mouse, 1:100,000-500,000, Meridian Life science, H86504M), GST (1:10,000, Sigma, G7781), MFN1 (mouse, 1:5,000, Abcam, ab57602), MFN2 (mouse, 1:5,000, Abcam, ab56889), Parkin (mouse, 1:2,000, Cell Signaling, #4211), pSer65-Ub (rabbit, 1:15,000, in-house (Fiesel et al., EMBO Reports (2015) 16:1114-30; Fiesel et al., (2015) Autophagy 11:2125-2126)), TOM70 (rabbit, 1:5,000, Proteintech, 14528-1-AP), UBE2L3 (rabbit, 1:10,000, ProteinTech, 14415-1-AP), VDAC1 (mouse, 1:5,000, Abcam, ab14734), vinculin (mouse, 1:100,000, Sigma, V9131).
HeLa 3×FLAG-Parkin C431S cells were seeded in 6-well plates and allowed to attach overnight. Cells were treated with […] of compounds 5, 21-28, 32, 33, or 43-46 2 h before adding CCCP for another 2 h. 10 VM CCCP was added to positive control (PC) wells, 3.5 μM CCCP to compound (+) and negative control (NC) wells. […] Cells were harvested in boiling hot SDS lysis buffer and protein concentration was determined by BCA. Samples were split and left either untreated or were treated with NaOH as indicated. Samples were run on an 8-16% Tris-Glycine gel, blotted onto membranes and probed with antibodies against Flag. Vinculin served as a loading control. Band shift indicates Parkin binding to Ubiquitin, which is cleavable with NaOH (FIG. 21).
On the technique in general: Immunoblotting shows a protein as a band on a membrane.

Series [1] is described as follows: Caco-2 A-B permeability assay. In kind it is in vitro ADME. The settings on record: human, Caco-2, pH 7.4, A-B. On the procedure: (§1) Caco-2 cells were cultivated in 75 cm^2 flasks to 80-90% of confluence according to the ATCC and Millipore recommendations (Millipore protocol note PC1060EN00P) in a humidified atmosphere at 37° C. and 5% CO2. Cells were detached with Trypsin/EDTA solution and re-suspended in the cell culture medium to a final concentration of 2×10^5 cells/mL. 500 μL of the cell suspension was added to each well of an HTS 24-multiwell insert system and 35 mL of prewarmed complete medium was added to the feeder tray. Caco-2 cells were incubated in the multiwell insert system for 10 days before the transport experiments. The medium in the filter plate and feeder tray was changed every other day. After 10 days of cell growth, the integrity of the monolayer was verified by measuring the transepithelial electrical resistance (TEER) for every well using the Millicell-ERS system ohm meter. […] The 24-well insert plate was removed from its feeder plate and placed in a new sterile 24-well transport analysis plate. The medium was aspirated and inserts washed with PBS.
(§2) To determine the rate of drug transport in apical (A) to basolateral (B) direction, 300 μL of the test compound solution in buffer (HBSS, 5.6 mM glucose, 10 mM HEPES, pH=7.4) was added into the filter wells and 1000 μL of the same buffer was added to wells in the transport analysis plate. The plates were incubated for 90 min. at 37° C. with shaking at 50 rpm. 75 μL aliquots were taken from the apical and basolateral compartment for LC-MS/MS analysis. All samples for LC-MS/MS analysis were extracted by acetonitrile (×2 volume) followed by protein sedimentation by centrifuging at 10000 rpm for 10 minutes. Supernatants were analyzed using the HPLC system coupled with a tandem mass spectrometer.
(§3) The apparent permeability (Papp) was calculated for the Caco-2 permeability assay using the following equation: Papp=(VA/((Area)×(Time))×([drug]acc/[drug]initial,d), where: […]

In another series the test system is Caco-2 cells. Nature of the series: Caco-2 A-B permeability assay. In kind it is in vitro ADME. The settings on record: A-B, 90 min, pH=7.4; hydrochloride. On the procedure: as §1, §2, §3
In general terms: Caco-2 monolayers are a common model of the intestinal barrier.

In a further series the target is CYP 2D6 (Homo sapiens (Human), UniProt P10635). Kind of series: P450-Glo CYP450 inhibition, CYP 2D6. On the procedure:
CYP450 inhibition profiling provides valuable information regarding any possible drug-drug interactions for a test compound.
All experiments were performed using P450-Glo™ Assay Systems (Promega) in accordance with the manufacturer's protocols. The P450-Glo™ Assays provide a luminescent readout-based method for measuring cytochrome P450 activity. A conventional cytochrome P450 reaction was performed by incubating the cytochrome P450 and a luminogenic cytochrome P450 substrate. The substrates in the P450-Glo™ assays are derivatives of beetle luciferin. The derivatives themselves are not substrates for luciferase but are converted by cytochrome P450s to luciferin, which in turn reacts with luciferase to produce light. The amount of light produced was directly proportional to cytochrome P450 activity. All test points were performed in quadruplicates. Control membranes (without CYPs) represented the Negative control (baseline).
The following reference compounds were used to assess CYP inhibition: […]

Counter-ions that a name gives are not always drawn. Like-named read-outs stand apart in the source and are kept apart here.

CYP 2D6, sequence (P10635 whole entry): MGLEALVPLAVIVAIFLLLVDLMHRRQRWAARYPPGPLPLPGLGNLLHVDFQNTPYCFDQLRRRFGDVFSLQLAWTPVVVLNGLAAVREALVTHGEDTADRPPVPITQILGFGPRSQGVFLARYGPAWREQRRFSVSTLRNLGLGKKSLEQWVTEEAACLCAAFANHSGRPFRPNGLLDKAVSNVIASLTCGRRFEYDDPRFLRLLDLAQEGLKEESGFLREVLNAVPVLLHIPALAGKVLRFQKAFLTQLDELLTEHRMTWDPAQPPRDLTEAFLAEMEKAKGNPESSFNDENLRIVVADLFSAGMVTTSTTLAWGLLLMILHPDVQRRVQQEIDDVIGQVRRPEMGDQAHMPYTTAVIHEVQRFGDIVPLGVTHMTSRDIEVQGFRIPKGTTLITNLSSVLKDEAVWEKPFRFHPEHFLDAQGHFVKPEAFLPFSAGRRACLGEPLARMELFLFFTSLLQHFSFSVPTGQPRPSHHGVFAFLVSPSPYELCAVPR

`Cc1nc(NC(=O)Cn2cnc3c2CCCC3)ccc1-c1ccccc1` [Compound 5] showed an EC50 at Parkin of 63 nM. Moreover, the “Ub-charging of FLAG-Parkin C431S (WB)” value at FLAG-Parkin C431S is on record as “enhanced Ub-charging”.
The like results for `c1ccc(CN2CCCN(c3ncnc4c3CCCCC4)CC2)cc1` [Compound 32] were, in that order, 36 nM and “enhanced Ub-charging”.
The like results for `c1ccc(CN2CCCN(c3ncnc4c3CCCC4)CC2)cc1` [Compound 33] were, in that order, 111 nM and “enhanced Ub-charging”.
With `CC(C)NCC(O)COc1cccc2ccccc12` (stereo not shown) [Propranolol, propranolol hydrochloride, reference compound], the Papp at 90 min in series [1] (read-out: Permeability (individual replicates 1, 2)) amounted to 23 ×10⁻⁶ cm/s; in series [1] (read-out: Permeability Mean), 21.8 ×10⁻⁶ cm/s. For the same compound, the “Permeability (individual replicates 1, 2)” value with Caco-2 cells is 20.6 10^−6 cm/s.
As to `C=C[C@H]1C[N@@]2CC[C@H]1C[C@@H]2[C@@H](O)c1ccnc2ccc(OC)cc12` [quinidine, reference compound], at 1 µM the inhibition against CYP 2D6 was 88.4%.

The EC50 is the concentration giving half of the maximal effect. A higher EC50 goes with weaker potency. The term inhibition denotes the percentage by which the read-out fell short of the control.

For the origin of these results see patent publication US11401255B2, “Small molecule activators of Parkin enzyme function” (Mayo Foundation for Medical Education and Research, priority 2016, dated 2022).
